[ ]: non-standard residue; d: D form. The star is where a group is joined. Palmitoyl = CCCCCCCCCCCCCCCC(=O)*; NHhexadecyl = CCCCCCCCCCCCCCCCN*; Myristoyl = CCCCCCCCCCCCCC(=O)*; Orn = NCCC[C@H](N)C(=O)O; NHHex = CCCCCCN*
What follows are substances tested on human miRNA145 (assay: miRNA145 inhibition on Human Keratinocyte HaCaT cell line, direct quantification by luminescence). Details: HaCaT cells, 0.3 mg/ml, 24 hours, normalized with Snord48; mean of 3 experiments for DD14024, one experiment for the others.
Type: cell-based
Description: The synthetic peptide candidates are evaluated for the inhibition of human miRNA145 expression level using a direct miRNA145 quantification assay based on luminescence detection in a Human Keratinocyte HaCaT cell line.
HaCat cells (Deutsches Krebsforschungszentrum) are seeded at 3.0×10^4 cells/well in 96-clear wells plates and incubated in a culture medium [(DMEM High Glucose with L-Glutamine (Lonza), supplemented with 10% Fetal Bovine Serum (Cultek)] for 24 hours at 37° C. in a water-saturated atmosphere of 95% air and 5% CO2. Then, the cells with the candidates added at 0.3 mg/ml in the culture medium are treated for 24 hours at 37° C., 95% air and 5% CO2. Cells with culture medium only are treated to the same conditions to provide basal conditions. Each cell culture condition is assayed at least in 6 biological replicates. At the end of the incubation period, the cells are lysed and the relative miRNA145 expression level is quantified by a specific assay kit (QuantiGene™ 2.0 miRNA Assay Kit) following manufacturer's instructions (Affymetrix). Briefly, to capture miRNA145, culture lysates are incubated overnight at 46±1° C. in 96-white well plates with the miRNA145 specific probe set (Capture extenders and Label extenders). As an endogenous expression control, the housekeeping Snord48 is quantified using a specific probe set. Next day, the signal amplification tree is built via sequential hybridization at 46±1° C. of three probes: PreAmplifier, Amplifier and Alkaline Phosphatase Label Probe. Then, the signal is detected by adding a chemiluminescent substrate and using a Microplate Luminometer Reader (Clariostar-BMG LabTech).
The miRNA145 expression level result is normalized with the Snord48 expression level for each cell culture condition and the relative decrease in the miRNA145 expression level is calculated respect to basal control (cells treated with culture medium only). The values represent the mean of 3 independent experiments for DD14024, and for the other candidates, represent the result of one experiment.

Substance	Relative level of miRNA145 respect to basal control (%)
Ac-Asn-Glu-Ile-Arg-Val-Gln-OH (Ac-NEIRVQ-OH) [DD15026]	77.60 ± 5.43
Ac-Asp-Gln-Met-Arg-Met-Gln-OH (Ac-DQMRMQ-OH) [DD15053]	58.64 ± 0.04
Ac-Asp-Glu-Met-Arg-Met-Gln-OH (Ac-DEMRMQ-OH) [DD15012]	71.05 ± 3.82
Ac-Gln-Asp-Met-Arg-Met-Gln-NHC6H13 (Ac-QDMRMQ-NHHex; SMILES CCCCCCNC(=O)[C@H](CCC(N)=O)NC(=O)[C@H](CCSC)NC(=O)[C@H](CCCNC(=N)N)NC(=O)[C@H](CCSC)NC(=O)[C@H](CC(=O)O)NC(=O)[C@H](CCC(N)=O)NC(C)=O) [DD15013]	84.32 ± 6.96
Ac-Gln-Asp-Met-Lys-Met-Asn-OH (Ac-QDMKMN-OH) [DD15027]	78.47 ± 0.74
Ac-Gln-Gln-Met-Arg-Met-Gln-OH (Ac-QQMRMQ-OH) [DD15014]	80.06 ± 3.47
Ac-Gln-Glu-Met-Arg-Met-Asn-OH (Ac-QEMRMN-OH) [DD15056]	72.43 ± 1.39
Ac-Gln-Glu-Met-Arg-Met-Gln-NH2 (Ac-QEMRMQ-NH2) [DD14023]	87.03 ± 2.65
Ac-Gln-Glu-Met-Arg-Met-Gln-NHC6H13 (Ac-QEMRMQ-NHHex) [DD15004]	89.03 ± 5.37
Ac-Gln-Glu-Met-Arg-Met-Gln-Thr-NH2 (Ac-QEMRMQT-NH2) [DD15047]	77.67 ± 9.10
Ac-Gln-Glu-Met-Arg-Met-Gln-Tyr-OH (Ac-QEMRMQY-OH) [DD15046]	74.02 ± 1.98
Ac-Gln-Glu-Met-Arg-Met-Gln-Val-Tyr-OH (Ac-QEMRMQVY-OH) [DD15049]	80.09 ± 7.49
Ac-Gln-Glu-Met-Arg-Met-Glu-OH (Ac-QEMRME-OH) [DD15020]	62.43 ± 0.89
Ac-Gln-Glu-Met-Lys-Leu-Gln-OH (Ac-QEMKLQ-OH) [DD15024]	87.92 ± 1.32
Ac-Gln-Glu-Met-Lys-Met-Gln-OH (Ac-QEMKMQ-OH) [DD15017]	85.50 ± 1.74
Ac-Glu-Gln-Met-Arg-Met-Gln-OH (Ac-EQMRMQ-OH) [DD15054]	72.50 ± 2.88

Substance	Relative level of miRNA145 respect to basal control (%)
Ac-Glu-Glu-Ile-Arg-Met-Gln-NHC16H33 (Ac-EEIRMQ-NHhexadecyl; SMILES CCCCCCCCCCCCCCCCNC(=O)[C@H](CCC(N)=O)NC(=O)[C@H](CCSC)NC(=O)[C@H](CCCNC(=N)N)NC(=O)[C@@H](NC(=O)[C@H](CCC(=O)O)NC(=O)[C@H](CCC(=O)O)NC(C)=O)[C@@H](C)CC) [DD15023]	74.48 ± 3.34
Ac-Glu-Glu-Met-Arg-Met-Gln-OH (Ac-EEMRMQ-OH) [DD15051]	92.26 ± 1.61
Ac-Pro-Gln-Glu-Met-Arg-Met-Gln-OH (Ac-PQEMRMQ-OH) [DD15045]	90.71 ± 4.78
Ac-Pro-Val-Gln-Glu-Met-Arg-Met-Gln-OH (Ac-PVQEMRMQ-OH) [DD15048]	89.54 ± 3.79
Ac-QEM[Orn]MQ-OH [DD15022]	75.41 ± 2.25
Ac-Ser-Gln-Glu-Met-Arg-Met-Gln-Thr-NH2 (Ac-SQEMRMQT-NH2) [DD15050]	72.44 ± 3.87
H-Gln-Asp-Met-Arg-Met-Asn-NH2 (H-QDMRMN-NH2) [DD15025]	86.95 ± 0.55
H-Gln-Glu-Ile-Arg-Met-Gln-NH2 (H-QEIRMQ-NH2) [DD15016]	87.63 ± 4.46
H-Gln-Glu-Met-Arg-Ile-Gln-NH2 (H-QEMRIQ-NH2) [DD15019]	67.00 ± 2.89
H-Gln-Glu-Met-Arg-Leu-Gln-NH2 (H-QEMRLQ-NH2) [DD15055]	67.03 ± 0.23
H-Gln-Glu-Met-Arg-Met-Gln-OH (H-QEMRMQ-OH) [DD15002]	89.75 ± 0.69
Myr-Gln-Glu-Met-Arg-Met-Gln-NH2 (Myristoyl-QEMRMQ-NH2) [DD15052]	92.94 ± 1.35
Myr-Glu-Glu-Met-Arg-Met-Gln-OH (Myristoyl-EEMRMQ-OH; SMILES CCCCCCCCCCCCCC(=O)N[C@@H](CCC(=O)O)C(=O)N[C@@H](CCC(=O)O)C(=O)N[C@@H](CCSC)C(=O)N[C@@H](CCCNC(=N)N)C(=O)N[C@@H](CCSC)C(=O)N[C@@H](CCC(N)=O)C(=O)O) [DD15011]	73.29 ± 4.37
Palm-Gln-Glu-Leu-Arg-Met-Gln-OH (Palmitoyl-QELRMQ-OH; SMILES CCCCCCCCCCCCCCCC(=O)N[C@@H](CCC(N)=O)C(=O)N[C@@H](CCC(=O)O)C(=O)N[C@@H](CC(C)C)C(=O)N[C@@H](CCCNC(=N)N)C(=O)N[C@@H](CCSC)C(=O)N[C@@H](CCC(N)=O)C(=O)O) [DD15015]	14.07 ± 0.28
Palm-Gln-Glu-Met-Arg-Met-Gln-OH (Palmitoyl-QEMRMQ-OH) [DD15003]	76.38 ± 7.00
